The first assay deals with T1, Recombinant human renin (Homo sapiens, UniProt P00797).
T1 sequence (P00797 67-406): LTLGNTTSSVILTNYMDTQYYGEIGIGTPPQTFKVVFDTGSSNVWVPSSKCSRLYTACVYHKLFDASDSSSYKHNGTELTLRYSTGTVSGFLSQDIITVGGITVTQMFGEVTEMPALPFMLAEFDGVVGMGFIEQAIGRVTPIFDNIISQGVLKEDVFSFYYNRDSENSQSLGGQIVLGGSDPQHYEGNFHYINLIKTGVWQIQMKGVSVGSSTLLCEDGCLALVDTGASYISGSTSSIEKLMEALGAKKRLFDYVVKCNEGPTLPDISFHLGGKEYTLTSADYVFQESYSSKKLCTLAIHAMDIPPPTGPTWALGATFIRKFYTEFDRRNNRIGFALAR
The experiment in a line: Inhibitory activity against human renin (fluorogenic peptide substrate). The assay is classed as biochemical. As to conditions: 37° C. for 1 hour, read-out: IC50.
With `COC(=O)NCCCc1cc([C@@H](C)N(C(=O)[C@H]2CNCCO2)C2CC2)cc(C(C)C)n1` [Example 99], the IC50 (as a rule, the concentration that gives 50% inhibition) was found to be 1.8 nM.
For `COC(=O)NCCOc1cc([C@@H](C)N(C(=O)[C@H]2CNCCO2)C2CC2)nc2c1CCCC2` [Example 104], the IC50 was 8.2 nM.
As for `COCCCN1CC(C)(C)c2ccc([C@@H](C)N(C(=O)[C@H]3CNCCO3)C3CC3)cc21` [Example 46], the IC50 amounted to 1.5 nM.
The same measure, in the same setting: for `COC(=O)NCCCn1nc([C@@H](C)N(C(=O)[C@H]2CNCCO2)C2CC2)c2ccc(OC)cc21` [Example 41] the value was 0.7 nM; for `COCCCN1C(=O)C(C)(C)c2ccc([C@@H](C)N(C(=O)[C@H]3CNCCO3)C3CC3)cc21` [Example 45], 3.4 nM; for `COC(=O)NCCCn1cc([C@@H](C)N(C(=O)[C@H]2CNCCO2)C2CC2)c2nccc(C)c21` [Example 42], 0.5 nM.
Still for that read-out and setting: for `COCCCc1cn(C)c2ccc([C@@H](C)N(C(=O)[C@H]3CNCCO3)C3CC3)cc12` [Example 48] the value was 1.5 nM; for `COC(=O)NCCCc1cc([C@@H](C)N(C(=O)[C@H]2CNC[C@@H](C(=O)OC)O2)C2CC2)sc1-c1ccccc1` [Example 3, methyl (2S,6R)-6-{cyclopropyl[(1R)-1-(4-{3-[(methoxycarbonyl)amino]propyl}-5-phenylthiophen-2-yl)ethyl]carbamoyl}morpholine-2-carboxylate], 0.6 nM; for `COCCCCn1cc([C@@H](C)N(C(=O)[C@H]2CNCCO2)C2CC2)c2ncc(C3CC3)cc21` [Example 36], 0.5 nM.
For `COCCCc1cn(C)c2ncc([C@@H](C)N(C(=O)[C@H]3CNCCO3)C3CC3)cc12` [Example 47], the IC50 is 4.8 nM.
Still for that read-out and setting: for `COCCCCc1cc([C@@H](C)N(C(=O)[C@H]2CNCCO2)C2CC2)cc(C(C)C)n1` [Example 110] the value was 0.9 nM; for `COC(=O)NCCCn1cc([C@@H](C)N(C(=O)[C@H]2CNCCO2)C2CC2)nc1C1CCCCC1` [Example 6, methyl (3-{2-cyclohexyl-4-[(1R)-1-{cyclopropyl[(2R)-morpholin-2-ylcarbonyl]amino}ethyl]-1H-imidazol-1-yl}propyl)carbamate], 0.3 nM.
The same measure, in the same setting: for `COC(=O)NCCCn1nc([C@@H](C)N(C(=O)[C@H]2CNCCO2)C2CC2)c2ccc(C3CC3)cc21` [Example 59] the value was 0.9 nM.
In the case of `COC(=O)NCCCc1cc(F)cc([C@@H](C)N(C(=O)[C@H]2CNCCO2)C2CC2)c1` [Example 92], the IC50 came to 1.9 nM.

The same assay, now with this note: 50% inhibitory concentration (IC50) against human renin, 37° C. for 1 hour.
`COC(=O)NCCCc1c(F)c([C@@H](C)N(C(=O)[C@H]2CNCCO2)C2CC2)nn1-c1ccccc1` [Example 244]: the concentration for half-maximal inhibition (IC50) was found to be 1 nM.
As to `COC(=O)NCCCc1nc([C@@H](C)N(C(=O)[C@H]2CNC[C@@H](C)O2)C2CC2)sc1-c1cccc(Cl)c1` [Example 376], the IC50 amounted to 4.7 nM.
The same measure, in the same setting: in the case of `CCc1nc([C@@H](C)N(C(=O)[C@H]2CNCCO2)C2CC2)cc2c1ccn2Cc1ccccc1` [Example 147] it was 2.5 nM.
For `COC(=O)NCCCn1nc([C@@H](C)N(C(=O)[C@H]2CNC[C@@H](C(=O)OC)O2)C2CC2)c2ccc(C)nc21` [Example 254], the half-inhibitory concentration (IC50) was 0.5 nM.
Take `COC[C@H]1CO[C@@H](C(=O)N(C2CC2)[C@@H](C)c2cn(CCCNC(=O)OC)c(C3CCOCC3)n2)CN1` [Example 322]: the IC50 turned out to be 1.5 nM.
Same read-out and setting: for `C=C(c1sc([C@@H](C)N(C(=O)[C@H]2CNCCO2)C2CC2)cc1CCCNC(=O)OC)C(F)(F)F` [Example 401] the value was 2.7 nM; for `COC(=O)NCCCn1cc([C@@H](C)N(C(=O)[C@H]2CNCCO2)C2CC2)nc1C(C)C` [Example 181], 0.7 nM; for `COC(=O)NCCCn1cc(C(C)N(C(=O)[C@H]2CNCCO2)C2CC2)c2ccnc(C)c21` (some centres unmarked) [Example 138], 6.1 nM.
Same read-out and setting: in the case of `COC(=O)NCCCn1nc([C@@H](C)N(C(=O)[C@H]2CNC[C@@H](C)O2)C2CC2)c2ccc(C)nc21` [Example 250] it was 0.3 nM.
The same measure, in the same setting: in the case of `CCOC[C@@H]1CNC[C@H](C(=O)N(C2CC2)[C@@H](C)c2nn(CCCNC(=O)OC)c3nc(C)ccc23)O1` [Example 312] it was 0.7 nM; in that of `COC[C@H]1CO[C@@H](C(=O)N(C2CC2)[C@@H](C)c2cnc(OC)c(CCCNC(=O)OC)c2)CN1` [Example 309], 7.1 nM.
For the compound `COC(=O)NCCCc1cc([C@@H](C)N(C(=O)[C@H]2CN[C@@H](CC(F)F)CO2)C2CC2)cc(OC)n1` [Example 306], the half-inhibitory concentration (IC50) worked out at 1.6 nM.
Same read-out and setting: in the case of `COC(=O)NCCCc1nc([C@@H](C)N(C(=O)[C@H]2CNCCO2)C2CC2)sc1-c1cccc(Cl)c1` [Example 377] it was 2.4 nM; in that of `COC(=O)NCCCn1nc([C@@H](C)N(C(=O)[C@H]2CN[C@@H](CO)CO2)C2CC2)c2ccc(C)nc21` [Example 258], 3.2 nM.
Same read-out and setting: for `COC(=O)NCCCn1nc([C@@H](C)N(C(=O)[C@H]2CNCCO2)C2CC2)cc1-c1ncccc1F` [Example 185] the value was 0.3 nM; for `COC[C@H]1CO[C@@H](C(=O)N(C2CC2)[C@H](C)c2nn(CCCNC(=O)OC)c3nc(C)ccc23)CN1` [Example 261], 0.7 nM.
Still for that read-out and setting: for `COC(=O)NCCCn1nc([C@@H](C)N(C(=O)[C@H]2CNCCO2)C2CC2)nc1-c1ccc(C)cc1` [Example 247] the value was 1.3 nM; for `COC(=O)NCCCc1nc(C(C)N(C(=O)[C@H]2CNCCO2)C2CC2)sc1-c1cccnc1` (some centres unmarked) [Example 403], 3.1 nM.
With `COC(=O)NCCCc1cc([C@H](C)N(C(=O)[C@H]2CNCCO2)C2CC2)cnc1C(C)C` [Example 315], the 50% inhibitory concentration (IC50) was 1 nM.
Same read-out and setting: in the case of `COC[C@H]1CO[C@@H](C(=O)N(C2CC2)[C@H](C)c2cn(CCCNC(=O)OC)c3ncccc23)CN1` [Example 295] it was 1.5 nM; in that of `COC(=O)NCCCn1nc([C@@H](C)N(C(=O)[C@H]2CNCCO2)C2CC2)cc1-c1ccc(C)nc1` [Example 180], 0.6 nM; in that of `COC[C@@H]1CNC[C@H](C(=O)N(C2CC2)[C@H](C)c2cc(OC)nc(CCCNC(=O)OC)n2)O1` [Example 386], 3.2 nM.
On the same count and under the same terms, in the case of `COC(=O)NCCCn1nc([C@@H](C)N(C(=O)[C@H]2CNCCO2)C2CC2)c2c1C(C)(C)CC2` [Example 233] it was 0.3 nM; in that of `COC(=O)NCCCc1nc(OC)cc([C@@H](C)N(C(=O)[C@H]2CNCCO2)C2CC2)n1` [Example 298], 3.5 nM.
Still for that read-out and setting: in the case of `CCc1nc([C@@H](C)N(C(=O)[C@H]2CNCCO2)C2CC2)cc2c1c(C#N)cn2CCCOC` [Example 161] it was 0.7 nM; in that of `C[C@H](c1cn(Cc2cccc(OC(F)(F)F)c2)c(-c2ccccc2)n1)N(C(=O)[C@H]1CNCCO1)C1CC1` [Example 207], 6.9 nM.
For the compound `COC(=O)NCCCc1nc([C@H](C)N(C(=O)[C@H]2CNCCO2)C2CC2)sc1-c1ccc(F)cc1` [Example 402], the IC50 worked out at 2.3 nM.
Still for that read-out and setting: in the case of `COC(=O)NCCCc1cc([C@@H](C)N(C(=O)[C@H]2CNCCO2)C2CC2)nn1-c1ccc(F)cc1` [Example 221] it was 0.3 nM.
Same read-out and setting: for `COC(=O)NCCCn1cc([C@@H](C)N(C(=O)[C@H]2CNCCO2)C2CC2)nc1C(C)(C)C` [Example 215] the value was 0.5 nM; for `COC(=O)NCCCc1sc(C(C)N(C(=O)[C@H]2CNCCO2)C2CC2)cc1-c1ccnn1C` (some centres unmarked) [Example 429], 2 nM; for `COC[C@H]1CO[C@@H](C(=O)N(C2CC2)[C@H](C)c2cc(CCCNC(=O)OC)n(C(C)C)n2)CN1` [Example 300], 2.8 nM.
Regarding `COC(=O)NCCCn1nc([C@@H](C)N(C(=O)[C@H]2CNCCO2)C2CC2)c(C)c1-c1ccccn1` [Example 220], the IC50 was 0.4 nM.
Still for that read-out and setting: for `COC(=O)NCCCn1nc([C@@H](C)N(C(=O)[C@H]2CNCCO2)C2CC2)cc1-c1ccc(F)cc1` [Example 158] the value was 0.3 nM.
Consider `COCCOc1cc([C@H](C)N(C(=O)[C@H]2CNC[C@@H](COC)O2)C2CC2)cc(CCCNC(=O)OC)n1` [Example 384], for which the half-inhibitory concentration (IC50) came out at 3.2 nM.
Turning to `COC(=O)NCCCc1sc(C(C)N(C(=O)[C@H]2CNCCO2)C2CC2)cc1-c1cccnc1` (some centres unmarked) [Example 430], the IC50 was found to be 2.4 nM.
Consider `CCOC[C@H]1CO[C@@H](C(=O)N(C2CC2)[C@H](C)c2nn(CCCNC(=O)OC)c3nc(C)ccc23)CN1` [Example 273], for which the IC50 stood at 1 nM.
The same measure, in the same setting: in the case of `COC(=O)NCCCc1nc(C(C)N(C(=O)[C@H]2CNCCO2)C2CC2)c(C)n1-c1ccccc1` (some centres unmarked) [Example 343] it was 5.3 nM.
Still for that read-out and setting: for `COC(=O)NCCCc1nc([C@@H](C)N(C(=O)[C@H]2CNCCO2)C2CC2)sc1-c1cn[nH]c1` [Example 421] the value was 2.2 nM; for `COC(=O)NCCCn1cc([C@@H](C)N(C(=O)[C@H]2CNCCO2)C2CC2)nc1-c1ccccc1` [Example 136], 0.3 nM; for `COC(=O)NCCCc1cc([C@@H](C)N(C(=O)[C@H]2CNCCO2)C2CC2)nc(C2CC2)n1` [Example 374], 5.4 nM.
Same read-out and setting: for `COC(=O)NCC(F)Cn1nc([C@@H](C)N(C(=O)[C@H]2CNCCO2)C2CC2)cc1-c1ccccc1` (some centres unmarked) [Example 199] the value was 0.2 nM; for `COC(=O)NCCCc1cc([C@@H](C)N(C(=O)[C@H]2CN[C@@H](CF)CO2)C2CC2)nn1-c1ccc(F)cc1` [Example 372], 6 nM.
Regarding `COC(=O)NCCCc1cc([C@@H](C)N(C(=O)[C@H]2CNCCO2)C2CC2)sc1-c1ccccc1CNS(=O)(=O)CC(F)(F)F` [Example 286], the half-inhibitory concentration (IC50) is 0.4 nM.
`CCc1cc(CCCNC(=O)OC)nc([C@@H](C)N(C(=O)[C@H]2CNCCO2)C2CC2)n1` [Example 399]: the concentration for half-maximal inhibition (IC50) was 4 nM.
On to `COC[C@@H]1CNC[C@H](C(=O)N(C2CC2)[C@@H](C)c2cnc(OC)c(CCCNC(=O)OC)c2)O1` [Example 310], for which the IC50 was 0.4 nM.
